According to patent US20250002435A1, “ARYLATED FENCHONE DERIVATIVES, COMPOSITIONS COMPRISING THEM, PROCESSES FOR THEIR PREPARATION AND USES THEREOF” (priority 2021, published 2025):
“And” between values parts separate entries of the source, which are not always exact repeats. Equal values may be shown once.

Legend:
[1] = target: T1, hCB2R (Homo sapiens (Human), UniProt P34972); assay: [3H]CP-55,940 competition displacement binding, membranes of CHO-K1 cells expressing human CB2R
Experimental: (§1) Affinity for Cannabinoid Receptors. The compounds were further characterized using a radioligand binding assay to determine their affinities for CB1R and CB2R based on each test compound's ability to displace the radiolabeled CB1R/CB2R agonist CP-55,940 from membranes prepared from a mouse brain (a source of CB1R) and membranes of cells expressing the human CB2R. […] Therefore, the compounds were assayed using membranes from CHO-K1 cells expressing the human CB2R (hCB2R).
(§2) Membranes from cells expressing human CB2R were purchased from Charles River, (Cat #A308; Ohio, US). Solutions of test compounds ranging from 0.1 nM to 10 mM were prepared in DMSO. The desired amount of membrane preparation was diluted with ice-cold assay buffer (50 mM Tris-HCl, 2.5 mM EDTA, 5 mM MgCl2, 0.1% BSA, pH 7.4) and was vortexed. […] The assays were incubated for 90 minutes at 30° C. and then immediately filtered on WHATMAN GF/B FilterPaper (Fired) using a Brandel M-24R Harvester followed by six washes with ice cold wash buffer (50 mM Tris-HCl, 2.5 mM EDTA, 5 mM MgCl2, 0.1% BSA, pH 7.4). Radioactivity was detected by adding the FilterPaper directly to the ULTIMA GOLD scintillation cocktail (PerkinElmer), incubation at 20° C. for 60 min and then counted using a Tri-Carb 4910TR liquid scintillation counter.

[2] = target: T1, hCB2R; assay: [35S]GTPγS binding assay, hCB2R CHO cell membranes; type: biochemical; details: for functional activity at hCB2R (agonist / inverse agonist): [35S]GTPγS binding
Experimental: Functional Characterization.
The method used for measuring agonist-stimulated binding of [^35S]GTPγS was based on a described protocol. The assays were carried out with GTPγS assay buffer (50 mM Tris HCl (pH 7.4), 0.2 mM EGTA, 9 mM MgCl2, 150 mM NaCl, 1 mg/ml BSA). Briefly, membranes (5 μg protein) were incubated in assay buffer containing 100 μM GDP, 0.05 nM [^35S]GTPγS, test compounds at various concentrations in siliconized glass tubes. Bound ligand was separated from free ligand by vacuum filtration. Nonspecific binding was determined using 10 μM GTPS. Basal binding was assayed in the absence of the ligand and in the presence of GDP.

[3] = tested on: zymosan-induced swelling of hind paw; assay: zymosan-induced hind paw swelling in mice (5b, 5d, CBD); type: in vivo, mouse
Experimental: (§3) Cannabidiol (CBD), a major constituent of Cannabis, resembles fenchone derivatives in structure. It has powerful anti-inflammatory and anti-anxiety properties and therefore it is used as a positive control. […] In accordance with these findings, the anti-nociceptive effect, as determined by the von Frey monofilament assay peaked at 6 h (p<0.01) (FIG. 10C).
(§4) To induce inflammation, 40 μL of 1.5% (w/v) zymosan A (Sigma) suspended in 0.9% saline was injected into the sub-planter surface of the right hind paw of the mice. Immediately after zymosan injection, fenchone derivative was injected intraperitoneally (i.p.) after the compounds were dissolved in 0.1 mL vehicle containing ethanol:Cremophore:saline at a ratio of 1:1:18. Control mice were injected with the vehicle only. After 2, 6 and 24 hrs, paw swelling and pain perception were measured.
The paw swelling (thickness) was measured by calibrated calipers (0.01 mm), 2, 6 and 24 hrs following injections of zymosan alone or Fenchone derivatives.

[4] = tested on: zymosan-induced hyperalgesia; assay: von Frey nociceptive filament assay after zymosan (5b, 5d, CBD); type: in vivo, mouse
Experimental: as §3, §4
(§5) The hyperalgesia was evaluated by the paw withdrawal von Frey test at 2, 6, and 24 hrs following injections of zymosan and/or the test compounds. […] In this study, only 1.4-60 g corresponding to 4.17 to 5.88 log of force was used, to test the mouse sensitivity to a mechanical stimulus on the swollen paw. The measurements were performed in a quiet room. Before paw pain measurements, the animals were held for 10 sec. The trained investigator applied the filament to the central area of the hind paw with gradual increasing size. The test consisted of poking the middle of the hind paw to provoke a flexion reflex followed by a clear flinch response after paw withdrawal. Each one of the von Frey filaments was applied for approximately 3-4 s to induce the end-point reflex. The first testing was done by using the force filament of 1.4 g. If there was no withdrawal response, the next higher stimulus was tried. The mechanical threshold force (in grams (g)) was defined as the lowest force imposed by two von Frey monofilaments of various sizes, required to produce a paw retraction. The untreated left hind paw served as a control.

[5] = target: mCB1R (Mus musculus (Mouse), UniProt P47746); assay: [3H]CP-55,940 competition displacement binding, crude membranes from mouse brain; details: displacement of [3H]CP-55,940; NB = No binding detected at concentrations up to 10 μM; read-out: Ki (nM) mCB1R
Experimental: as §1, §2

[6] = tested on: zymosan-induced hyperalgesia; assay: zymosan mouse paw inflammatory pain model, von Frey test, with or without CB2 antagonists; type: in vivo; details: addition of AM630, 24 h
Experimental: (§6) To induce inflammation, 40 μL of 1.5% (w/v) zymosan A (Sigma) suspended in 0.9% saline was injected into the sub-planter surface of the right hind paw of the mice. Immediately after zymosan injection, antagonists were injected intraperitoneally (IP) and after 30 minutes, the fenchone derivatives dissolved in 0.1 mL vehicle containing ethanol:Cremophore:saline at a ratio of 1:1:18 were injected. Control mice were injected with the vehicle only. After 2, 6, and 24 hrs, paw swelling, and pain perception were measured.
as §5, with “Specifically, measurement of Oedema Formation was assessed by monitoring paw swelling via calibrated calipers (0.01 mm), 6 and 24 hrs following injections of zymosan alone and/or the test compounds. Pain hyperalgesia” for “The hyperalgesia”, “at” for “at 2,”, “24 h” for “24 hrs”

[7] = tested on: TNFα; assay: serum TNFα ELISA 24 h after zymosan injection; type: in vivo, mouse; details: AM630 added to 1D
Experimental: Blood was collected 24 h after zymosan injection, and the sera were assayed for TNFα using a mouse TNFα ELISA kit (R&D Systems, Minneapolis, MN, USA), according to the manufacturer's instructions.

[8] = tested on: zymosan-induced paw swelling; assay: zymosan mouse paw inflammatory pain model, paw swelling, with or without CB2 antagonists; type: in vivo; details: 10 mg/kg AM630 with 1D, 24 h
Experimental: as §6
as §5, with “Specifically, measurement of Oedema Formation was assessed by monitoring paw swelling via calibrated calipers (0.01 mm), 6 and 24 hrs following injections of zymosan alone and/or the test compounds. Pain hyperalgesia” for “The hyperalgesia”, “at” for “at 2,”, “24 h” for “24 hrs”

[9] = tested on: medial meniscal tear (MMT) post-traumatic OA; assay: rat MMT model, histopathology of medial tibial joint 28 days post MMT; type: in vivo; details: FGF18 60 μg/mL IA
Experimental: (§7) The rat OA model employed was surgically-induced medial meniscal tear (MMT), wherein rats were anesthetized with Isoflurane (VetOne, catalogue No. 502017), and the right knee area was prepared for surgery. A skin incision was made over the medial aspect of the knee, and the medial collateral ligament was exposed by blunt dissection and then transected. The medial meniscus was cut through the full thickness to simulate a complete tear. Skin and subcutis were closed with 4-0 Coated Vicryl (polyglactin 910) Violet Braided Suture (Ethicon, catalogue No. J399H), and slight hand pressure was applied to the wound for approximately 3 minutes for hemostasis. Subcutaneous (SC) dose of buprenorphine (0.05 mg/kg) administered after the animal awakened post-surgery. Rats were weighed daily on study days −1 through 7 and again on days 14, 21, and 28 (prior to necropsy). […] The animals were euthanized for necropsy 28 days post-surgery, following Isoflurane anesthesia, and bled to exsanguination followed by bilateral pneumothorax.
Right knees were collected from all animals and trimmed of muscle and patellae. The trimmed joints were placed in 10% neutral buffered formalin (NBF) for histologic processing and evaluation. Samples were fixed for 3 days in 4% paraformaldehyde and decalcified for 21 days in 10% EDTA, pH=7.5. Then following dehydration in a graded series of ethanol washes, joints were embedded in paraffin and sectioned to 7 μm slices, following trimming off 1 mm until the tibiofemoral compartments are fully observed. Sections were obtained from each knee and stained with toluidine blue (0.04% in 0.2 M acetate buffer, Ph=4.0), based on a modified version of the methods used in Schmitz, et al. (2010), (11). Histopathology was carried out using an ocular micrometer. The following structural histological characterization was carried out:
Regional differences across the tibial plateau were taken into consideration by dividing each section into three zones: (1) outside, (2) middle, and (3) inside. In the surgical OA model, the outside (zone-1) and middle (zone-2) thirds are most severely affected, and milder changes are present on the inside third (zone 3). When zones were scored individually, scores were assigned based on percent area of the zone affected. General cartilage degeneration including chondrocyte death/loss, proteoglycan (PG) loss, and collagen loss or fibrillation. Zones were scored individually (0-5; 5 representing sever damage; SD3), and a sum of all three zones was calculated (termed “Total Joint scores”).
The zone related cartilage depth is calculated from the projected articular surface tot the tidemark. Reduced ratios embody less detected cartilage width vs projected cartilage with area, per zone.
Osteophyte thickness (tidemark to furthest point extending toward synovium) was measured and scored according to a range from 0-5, as in SD4.
Damage to the calcified cartilage layer and subchondral bone was scored using the criteria in SD5. Generally damage was considered as invagination of deep zone cartilage into the subchondral bone layer.
[…] Descriptions of other changes (typically fibrosis, or acute inflammation/neutrophil infiltration extending into the lateral compartment usually associated with IA treatments) were also provided, if present.

[10] = tested on: medial meniscal tear (MMT) post-traumatic OA; assay: rat medial meniscal tear (MMT) model, body weight and dynamic weight bearing; type: in vivo; details: FGF18 60 μg/mL IA
Experimental: Initially, the required amount of HU308 dissolved in ethanol followed by addition of […] with vigorous mechanical agitation to form viscous micelle solution. Finally, the micelle solution was diluted in ice cold saline for injection or culture assays. Vehicle solution consisted of ethanol, cremophor and saline at 1:1:18 ratio. For intra-articular (IA) dosing 50 μL was injected into the tibiofemoral joint, at two doses; 8 and 24 μg/mL. Vehicle control contained 1:1:18 ethanol/Cremophor/saline, while positive control was of IA administered 60 μg/mL FGF-18 (R&D Systems, catalogue No. 8988-F18-050, lot No. BVE0521071) for IA dosing at 50 μL/knee.
as §7

T1 sequence (P34972 whole entry): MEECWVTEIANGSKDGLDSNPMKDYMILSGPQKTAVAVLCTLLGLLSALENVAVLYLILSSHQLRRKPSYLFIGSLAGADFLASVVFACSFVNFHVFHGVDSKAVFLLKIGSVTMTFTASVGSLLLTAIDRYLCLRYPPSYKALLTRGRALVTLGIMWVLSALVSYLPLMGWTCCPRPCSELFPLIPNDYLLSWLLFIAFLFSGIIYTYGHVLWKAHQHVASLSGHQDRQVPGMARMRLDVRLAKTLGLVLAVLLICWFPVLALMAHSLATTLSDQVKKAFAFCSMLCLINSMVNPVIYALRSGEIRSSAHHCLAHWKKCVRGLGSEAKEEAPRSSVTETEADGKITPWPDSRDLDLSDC
mCB1R, sequence (P47746 whole entry): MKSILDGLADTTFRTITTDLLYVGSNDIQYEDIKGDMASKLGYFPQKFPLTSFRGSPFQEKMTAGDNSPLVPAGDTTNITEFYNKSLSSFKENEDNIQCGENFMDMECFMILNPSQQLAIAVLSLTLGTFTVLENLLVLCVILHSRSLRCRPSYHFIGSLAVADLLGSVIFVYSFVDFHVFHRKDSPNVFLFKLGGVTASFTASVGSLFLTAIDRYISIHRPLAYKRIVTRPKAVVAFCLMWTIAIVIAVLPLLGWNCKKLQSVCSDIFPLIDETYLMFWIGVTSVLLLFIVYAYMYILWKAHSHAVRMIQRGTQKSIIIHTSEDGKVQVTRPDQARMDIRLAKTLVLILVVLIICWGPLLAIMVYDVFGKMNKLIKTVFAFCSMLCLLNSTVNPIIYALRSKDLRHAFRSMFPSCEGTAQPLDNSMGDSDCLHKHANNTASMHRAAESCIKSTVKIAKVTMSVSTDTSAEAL

**Q.** Which Ki ([1]; displacement of [3H]CP-55,940) does the source give for CCCCCCC(C)(C)c1cc(O)c(C2(O)C3(C)CCC(C3)C2(C)C)c(OC)c1 (stereo not shown) [Compound 5d, 2-(2′-hydroxy-6′-methoxy-4′-(2″-methyloctan-2″-yl)phenyl)-1,3,3-trimethyl-bicyclo[2.2.1]heptan-2-ol] here?
**A.** The Ki was 24.6 nM.

**Q.** What about the mCB1R/hCB2R ([1]; selectivity index from Ki values) of the same compound?
**A.** The mCB1R/hCB2R was 18.4.

**Q.** What about the “functional activity at hCB2R (agonist / inverse agonist)” value [2] of the same compound?
**A.** The value was “agonist”.

**Q.** And the EC50 ([2]; [35S]GTPγS binding to hCB2R, two independent experiments in triplicate)?
**A.** Its EC50 is 14.8 nM.

**Q.** And the “E(max) %” value ([2]; percentage of HU-308 response at 1 μM)?
**A.** Its value is 105.05%.

**Q.** What about the “inhibition of inflammation (paw swelling)” value (shortened to “inhibition of inflammation”) ([3]; 25 mg/kg ip, 24 h) of the same compound?
**A.** Its value is 55% and 56%.

**Q.** And the “inhibition of inflammation” value ([3]; 50 mg/kg ip, 2 h)?
**A.** Its value is 38%.

**Q.** What about the “inhibition of inflammation” value ([3]; 50 mg/kg ip, 6 h) of the same compound?
**A.** The value was 67%.

**Q.** What about the “inhibition of inflammation” value ([3]; 50 mg/kg ip, 24 h) of the same compound?
**A.** Its value is 56%.

**Q.** What about the “anti-nociceptive effect (von Frey)” value ([4]; 25 and 50 mg/kg ip, after 6 h) of the same compound?
**A.** Its value is “moderate anti-nociceptive effects”.

**Q.** And the Ki [5]?
**A.** The Ki was 451 nM.

**Q.** With COc1ccc(C(=O)c2c(C)n(CCN3CCOCC3)c3cc(I)ccc23)cc1 [AM630, reference compound] as the compound, how does the “effect of antagonist on the 1D von Frey effect” value [6] read?
**A.** Its value is “reversed”.

**Q.** And the “effect of antagonist on the 1D reduction of TNF-α” value [7]?
**A.** Its value is “abolished”.

**Q.** What about the “effect of antagonist on the 1D-reduced swelling” value [8] of the same compound?
**A.** The value was “fully inhibited its effect”.

**Q.** Which “inhibition of inflammation” value ([3]; 5 mg/kg ip, 6 h, FIG. 10A) does the source give for C=C(C)[C@@H]1CCC(C)=C[C@H]1c1c(O)cc(CCCCC)cc1O [CBD, Cannabidiol, reference compound] here?
**A.** The value was 40%.

**Q.** And the “inhibition of inflammation” value ([3]; 5 mg/kg ip, 24 h, FIG. 10A)?
**A.** The value was 43%.

**Q.** What about the “inhibition of inflammation” value ([3]; positive control in the 5d experiment (FIG. 10B), 6 h) of the same compound?
**A.** The value was 58%.

**Q.** What about the “inhibition of inflammation” value ([3]; positive control in the 5d experiment (FIG. 10B), 24 h) of the same compound?
**A.** The value was 78%.

**Q.** What about the “time at which the anti-nociceptive effect peaked (von Frey)” value ([4]; CBD positive control) of the same compound?
**A.** The value was 6 h.

**Q.** How did the “functional activity at hCB2R (agonist / inverse agonist)” value [2] turn out when CCCCCc1cc(O)c(C2(O)C3(C)CCC(C3)C2(C)C)c(OC)c1 (single isomer, unassigned) [Compound 5b, 2-(2′-hydroxy-6′-methoxy-4′-pentylphenyl)-1,3,3-trimethylbicyclo[2.2.1]heptan-2-ol] was run?
**A.** Its value is “agonist”.

**Q.** What about the “anti-nociceptive effect (von Frey)” value ([4]; 10 and 25 mg/kg ip, after 6 and 24 h) of the same compound?
**A.** The value was “strong anti-nociceptive effects”.

**Q.** What does the source list for “FGF18: positive control, IA administered 60 μg/mL FGF-18 (R&D Systems); anabolic effect to articular cartilage”?
**A.** mean zonal depth ratios [9]: reduced depth ratios; zone 3 cartilage degeneration score [9]: no beneficial effect; total zonal cartilage degeneration scores ([9]; vs 1D low dose and Vehicle): significantly reduced degenerative scores; medial synovial scores ([9]; vs all groups): highest; osteophyte measurements and scores ([9]; vs all groups): significantly higher measurements and scores; bone damage ([9]; vs the 1D high dose): relatively reduced levels; cumulative area under the curves for dynamic weight bearing (DWB) [10]: highest values
